pIC50: −log10 of the molar value.

Consider 41 compounds from patent US10501455B2, “Inhibitors of leukotriene A4 hydrolase” (Celtaxsys, Inc., priority 2013, dated 2019).

For assay [1], the target named is T1, LTA4-h (Homo sapiens, UniProt P09960).
T1 sequence (P09960 1-611): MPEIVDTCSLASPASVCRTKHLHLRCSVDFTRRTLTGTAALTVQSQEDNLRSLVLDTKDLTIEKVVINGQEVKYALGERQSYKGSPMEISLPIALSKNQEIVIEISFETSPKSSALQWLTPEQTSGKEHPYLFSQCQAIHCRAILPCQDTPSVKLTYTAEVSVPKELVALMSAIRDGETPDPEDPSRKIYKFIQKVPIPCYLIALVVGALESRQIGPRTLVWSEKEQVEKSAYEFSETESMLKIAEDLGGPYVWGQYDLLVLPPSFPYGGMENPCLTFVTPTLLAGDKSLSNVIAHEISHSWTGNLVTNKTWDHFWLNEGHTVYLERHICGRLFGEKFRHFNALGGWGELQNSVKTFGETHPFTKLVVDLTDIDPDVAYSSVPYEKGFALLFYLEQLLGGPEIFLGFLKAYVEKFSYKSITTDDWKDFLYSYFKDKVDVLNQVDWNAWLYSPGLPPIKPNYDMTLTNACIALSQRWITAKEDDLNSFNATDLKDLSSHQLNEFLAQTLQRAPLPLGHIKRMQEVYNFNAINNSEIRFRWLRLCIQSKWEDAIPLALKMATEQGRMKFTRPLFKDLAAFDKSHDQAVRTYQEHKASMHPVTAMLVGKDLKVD
The assay can be described thus: Peptidase (aminopeptidase) assay. Type of assay: biochemical. As to conditions: for inhibition at 3 µM: read-out: Peptidase % inhibition. On the procedure: Since LTA4-h hydrolase is grouped with the M1 family of zinc metalloproteases (see, Rudberg, P. C. et al., J. Biol. […] The whole blood and aminopeptidase assays were performed as described in Penning et al., J. Med.

Another assay has as its target T2, LTA4-h hydrolase (Homo sapiens, UniProt P09960).
T2 construct: endogenous in cells; host or cells: whole blood
T2 sequence (P09960 1-611): T1 sequence (P09960 1-611)
Briefly: Whole blood assay (WBA). It is filed as cell-based. The method, then:
Compounds of the invention can also be tested for their ability as inhibitors of LTA4-h hydrolase in the whole blood assay using human, mouse, rat or dog whole blood (see Penning, T. D. et al., J. Med. Chem. (2000), 43(4): 721-735 for a description of a human whole blood assay and a mouse whole blood assay, the contents of which are expressly incorporated herein). […] The whole blood and aminopeptidase assays were performed as described in Penning et al., J. Med. Chem. 2000, 43, 721-735, and Rudberg et al., J. Biol. Chem. Vol. 279, No. 26, Issue of June 25, pp. 27376-27382, 2004, the contents of each of which are expressly incorporated by reference herein. The hydrolase assay was performed as described in U.S. Pat. No. 7,737,145, the contents of which are expressly incorporated herein.

The target in assay [2] is T1, LTA4-h. Briefly: Hydrolase assay (hydrolase-homogeneous time resolved fluorescence, LTB4 produced). It is filed as biochemical. The text has this:
The compounds of the invention can be tested for their ability to inhibit LTA4-h by various known assays and by assays described herein. For example, the compounds can be tested for their ability to inhibit LTA4-h activity by assaying the compounds in the hydrolase-homogeneous time resolved fluoroescence assay. This assay, which is a two-step assay, measures the hydrolysis of […] to LTB4 by analyzing the amount of LTB4 produced. The first step involves the enzymatic conversion of […] to LTB4 and the second step involves the quantification of the […] with a homogeneous time resolved fluoroescence assay.
The whole blood and aminopeptidase assays were performed as described in Penning et al., J. Med. Chem. 2000, 43, 721-735, and Rudberg et al., J. Biol. Chem. Vol. 279, No. 26, Issue of June 25, pp. 27376-27382, 2004, the contents of each of which are expressly incorporated by reference herein. The hydrolase assay was performed as described in U.S. Pat. No. 7,737,145, the contents of which are expressly incorporated herein.

With `COC(=O)c1ccc(CN(CC2CCN(Cc3ccc(F)cc3)C2)c2ccc(Oc3ccc(Cl)cc3)cc2)cc1` (stereo not shown) [Compound 13], the pIC50 is 7.00 against LTA4-h [1] and 5.56 on LTA4-h hydrolase.

On LTA4-h [1], `COC(=O)c1coc(CN(CC2CCNC2)c2ccc(Oc3ccc(Cl)cc3)cc2)n1` (stereo not shown) [Compound 40] had a pIC50 of 6.90.

Take `CC(C)(C)OC(=O)N1CCC(CN(Cc2ccccc2)c2ccc(Oc3ccc(Cl)cc3)cc2)C1` (stereo not shown) [Compound 18]: the inhibition at 3 µM on LTA4-h [1] (at 3 uM) was determined as 0%.

Consider `Clc1ccc(Oc2ccc(NC3CC4CCC(C3)N4)cc2)cc1` (stereo not shown) [Compound 6], for which the pIC50 against LTA4-h [1] is 6.80; against LTA4-h [2], 6.44; on LTA4-h hydrolase, 5.72.

Take `O=C(O)c1cccc(CN(CC2CCNC2)c2ccc(Oc3ccc(Cl)cc3)cc2)c1` (stereo not shown) [Compound 36]: the results for the pIC50 against LTA4-h [1] and on LTA4-h [2] were 7.22 and 7.92, respectively.

As for `Clc1ccc(Oc2ccc(NCC3CCCCN3)cc2)cc1` (stereo not shown) [Compound 2], the pIC50 against LTA4-h [1] was 7.14; against LTA4-h [2] it was 6.72; against LTA4-h hydrolase, 6.06.

Compound `NS(=O)(=O)c1ccc(CN(C[C@@H]2CCCN2)c2ccc(Oc3ccc(Cl)cc3)cc2)cc1` [Compound 44] had a pIC50 against LTA4-h [1] of 6.96.

Turning to `COC(=O)c1ccc(CN(CC2CCN(C)C2)c2ccc(Oc3ccc(Cl)cc3)cc2)cc1` (stereo not shown) [Compound 12], the pIC50 was 6.82 against LTA4-h [1], 7.15 on LTA4-h [2] and 6.62 on LTA4-h hydrolase.

With `O=C(O)c1ccc(CN2CCC(CN(Cc3ccc(F)cc3)c3ccc(Oc4ccc(Cl)cc4)cc3)C2)cc1` (stereo not shown) [Compound 24], the pIC50 at LTA4-h [1] is 6.28; against LTA4-h [2], 6.06.

Turning to `CN1CCC(CN(Cc2ccc(F)cc2)c2ccc(Oc3ccc(Cl)cc3)cc2)C1` (stereo not shown) [Compound 20], the figures for the pIC50 at LTA4-h [1], against LTA4-h [2] and against LTA4-h hydrolase were 6.78, 6.85 and 6.02, respectively.

Regarding `CC(C)(C)OC(=O)N1CCC(CN(Cc2ccc([N+](=O)[O-])cc2)c2ccc(Oc3ccc(Cl)cc3)cc2)C1` (stereo not shown) [Compound 39], the inhibition at 3 µM at LTA4-h [1] was 19%.

For the compound `O=C(O)CN(CC1CCNC1)c1ccc(Oc2ccc(Cl)cc2)cc1` (stereo not shown) [Compound 29], the figures for the pIC50 against LTA4-h [1], on LTA4-h [2] and at LTA4-h hydrolase were 7.66, 6.49 and 6.04, respectively.

In the case of `CC(C)(C)OC(=O)N1CCC(CN(Cc2ccc(S(N)(=O)=O)cc2)c2ccc(Oc3ccc(Cl)cc3)cc2)C1` (stereo not shown) [Compound 32], the pIC50 is 7.92 against LTA4-h [1], 5.89 against LTA4-h [2] and 5.55 against LTA4-h hydrolase.

As for `O=C(O)c1ccc(CN2CC(Nc3ccc(Oc4ccc(Cl)cc4)cc3)C2)cc1` [Compound 7], the results for the pIC50 against LTA4-h [1], against LTA4-h [2] and against LTA4-h hydrolase were 8.40, 8.30 and 7.24, respectively.

For the compound `COC(=O)c1ccc(CN(CC2CCNC2)c2ccc(Oc3ccc(Cl)cc3)cc2)cc1` (stereo not shown) [Compound 10], the values for the negative-log IC50 (pIC50) on LTA4-h [1], on LTA4-h [2] and at LTA4-h hydrolase were 7.89, 7.66 and 6.59, respectively.

Turning to `O=C(O)c1cccc(CN(CC2CNC2)c2ccc(Oc3ccc(Cl)cc3)cc2)c1` [Compound 37], the pIC50 was 7.46 on LTA4-h [1] and 7.21 on LTA4-h [2].

Consider `COC(=O)c1cccc(CN(CC2CCN(C(=O)OC(C)(C)C)C2)c2ccc(Oc3ccc(Cl)cc3)cc2)c1` (stereo not shown) [Compound 33], for which the inhibition at 3 µM on LTA4-h [1] (at 3 uM) came out at 22%.

For `Clc1ccc(Oc2ccc(NCC3CCNC3)cc2)cc1` (stereo not shown) [Compound 1], the pIC50 against LTA4-h [1] is 7.35; against LTA4-h [2], 7.59; against LTA4-h hydrolase, 6.29.

Take `CC(C)(C)OC(=O)N1CCC(CN(Cc2ccc(F)cc2)c2ccc(Oc3ccc(Cl)cc3)cc2)C1` (stereo not shown) [Compound 19]: at LTA4-h [1] (at 3 uM), the inhibition at 3 µM was found to be 47%.

For `Clc1ccc(Oc2ccc(NCC3CNC3)cc2)cc1` [Compound 4], the pIC50 on LTA4-h [1] was 8.77; on LTA4-h [2] it was 8.10; against LTA4-h hydrolase, 7.05.

Take `CN1CCC(CN(Cc2ccc(C(=O)O)cc2)c2ccc(Oc3ccc(Cl)cc3)cc2)C1` (stereo not shown) [Compound 15]: the negative logarithm of the IC50 (pIC50) against LTA4-h [1] was 6.54; against LTA4-h [2] it was 6.33; on LTA4-h hydrolase, 6.25.

In the case of `COC(=O)c1ccc(CN(CC2CCN(C(=O)OC(C)(C)C)C2)c2ccc(Oc3ccc(Cl)cc3)cc2)cc1` (stereo not shown) [Compound 9], on LTA4-h [1] (at 3 uM), the inhibition at 3 µM amounted to 56%.

Take `O=C(O)c1ccc(CN2CCC(CN(Cc3ccccc3)c3ccc(Oc4ccc(Cl)cc4)cc3)C2)cc1` (stereo not shown) [Compound 25]: the results for the pIC50 against LTA4-h [1], against LTA4-h [2] and against LTA4-h hydrolase were 6.43, 5.81 and 6.28, respectively.

In the case of `COC(=O)c1ccc(CN(CC2CNC2)c2ccc(Oc3ccc(Cl)cc3)cc2)cc1` [Compound 28], the pIC50 against LTA4-h [1] is 7.34; on LTA4-h [2], 6.77; against LTA4-h hydrolase, 6.10.

With `CC(C)(C)OC(=O)CN(CC1CCN(C(=O)OC(C)(C)C)C1)c1ccc(Oc2ccc(Cl)cc2)cc1` (stereo not shown) [Compound 27], the inhibition at 3 µM on LTA4-h [1] (at 3 uM) was determined as 7%.

In the case of `COC(=O)c1cccc(CN(CC2CNC2)c2ccc(Oc3ccc(Cl)cc3)cc2)c1` [Compound 35], the pIC50 against LTA4-h [1] is 7.48.

In turn, `O=C(O)c1ccc(CN(CC2CCN(Cc3ccccc3)C2)c2ccc(Oc3ccc(Cl)cc3)cc2)cc1` (stereo not shown) [Compound 17] showed a pIC50 against LTA4-h [1] of 5.82. This pIC50 is 1.66 log units lower than that of the compound before.

Turning to `CC(C)(C)OC(=O)N1CCC[C@H]1CN(Cc1ccc(S(N)(=O)=O)cc1)c1ccc(Oc2ccc(Cl)cc2)cc1` [Compound 43], the inhibition at 1 µM against LTA4-h [1] (at 1 uM) turned out to be 0%.

Turning to `COC(=O)c1ccc(CN(CC2CN(C(=O)OC(C)(C)C)C2)c2ccc(Oc3ccc(Cl)cc3)cc2)cc1` [Compound 26], on LTA4-h [1] (at 3 uM), the inhibition at 3 µM was determined as 42%.

For `COC(=O)c1ccc(CN2CCC(CN(Cc3ccccc3)c3ccc(Oc4ccc(Cl)cc4)cc3)C2)cc1` (stereo not shown) [Compound 23], the inhibition at 3 µM at LTA4-h [1] (at 3 uM) was 40%.

On to `COC(=O)c1cccc(CN(CC2CN(C(=O)OC(C)(C)C)C2)c2ccc(Oc3ccc(Cl)cc3)cc2)c1` [Compound 31], for which the pIC50 at LTA4-h [1] is 7.12. This compound gave an inhibition at 3 µM against LTA4-h [2] (at 3 uM) of over 5%.

Regarding `O=C(O)c1ccc(CN(CC2CNC2)c2ccc(Oc3ccc(Cl)cc3)cc2)cc1` [Compound 30], the figures for the negative-log IC50 (pIC50) against LTA4-h [1], on LTA4-h [2] and against LTA4-h hydrolase were 6.62, 6.00 and 5.80, respectively.

Regarding `NS(=O)(=O)c1ccc(CN(CC2CCNC2)c2ccc(Oc3ccc(Cl)cc3)cc2)cc1` (stereo not shown) [Compound 38], the pIC50 on LTA4-h [1] is 7.59; against LTA4-h [2], 7.92.

In the case of `O=C(O)c1ccc(CN2CCC(CN(Cc3ccc(C(=O)O)cc3)c3ccc(Oc4ccc(Cl)cc4)cc3)C2)cc1` (stereo not shown) [Compound 3], the values for the pIC50 on LTA4-h [1], against LTA4-h [2] and against LTA4-h hydrolase were 7.06, 6.52 and under 5.52, respectively.

For `Clc1ccc(Oc2ccc(NC[C@@H]3CCCN3)cc2)cc1` [Compound 42], the pIC50 at LTA4-h [1] is 7.15.

`Clc1ccc(Oc2ccc(NC3CNC3)cc2)cc1` [Compound 5]: the pIC50 is 7.51 against LTA4-h [1], 6.52 against LTA4-h [2] and 6.04 against LTA4-h hydrolase.

On LTA4-h [1], `COC(=O)c1ccc(CN(CC2CCN(Cc3ccccc3)C2)c2ccc(Oc3ccc(Cl)cc3)cc2)cc1` (stereo not shown) [Compound 14] gave a pIC50 of 6.70.

`COC(=O)c1cccc(CN(CC2CCNC2)c2ccc(Oc3ccc(Cl)cc3)cc2)c1` (stereo not shown) [Compound 34] gave a pIC50 against LTA4-h [1] of 7.21.

`O=C(O)c1ccc(CN(CC2CCN(Cc3ccc(F)cc3)C2)c2ccc(Oc3ccc(Cl)cc3)cc2)cc1` (stereo not shown) [Compound 16]: the pIC50 is 5.80 against LTA4-h [1] and 5.66 on LTA4-h [2].

Consider `COC(=O)c1ccc(CN2CCC(CN(Cc3ccc(F)cc3)c3ccc(Oc4ccc(Cl)cc4)cc3)C2)cc1` (stereo not shown) [Compound 22], for which the inhibition at 3 µM on LTA4-h [1] (at 3 uM) is 59%.

For the compound `O=C(O)c1ccc(CN(CC2CCNC2)c2ccc(Oc3ccc(Cl)cc3)cc2)cc1` (stereo not shown) [Compound 11], the pIC50 against LTA4-h [1] was 6.85; on LTA4-h [2], 7.15; at LTA4-h hydrolase it was 6.17.

What is called pIC50 is the negative decadic logarithm of the IC50, by convention in mol/L. The inhibition is the relative decrease from the control value, in per cent.
